Results on 16 molecules are retold here after PubChem BioAssay AID256 (DTP/NCI, 2004).

Values joined by “and” are separate entries in the source; they are usually repeats but may differ in a detail not shown here. Equal values may be shown once. Toxic doses and inconclusive results are not listed.

The experiment deals with CD2F1 mice, L1210 leukemia ip, survival T/C. The experiment in a line: NCI In Vivo Anticancer Drug Screen. Data for tumor model L1210 Leukemia (intraperitoneal) in CD2F1 (CDF1) mice. Conditions: higher = longer survival. The essentials: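 Each value reflects a quotient of treated over vehicle control outcomes in mice with a transplanted tumor.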
The mark [1] stands for this setting: endpoint: mean survival time, dose: 100.0 mg/kg/injection, schedule: Q04DX003 (ip), vehicle: saline with Tween-80.
Setting [2] is: endpoint: mean survival time, dose: 200.0 mg/kg/injection, schedule: Q04DX003 (ip), vehicle: saline with Tween-80.
[3] abbreviates: endpoint: mean survival time, dose: 400.0 mg/kg/injection, schedule: Q04DX003 (ip), vehicle: saline with Tween-80.
[4] abbreviates: endpoint: mean survival time, dose: 100.0 mg/kg/injection, schedule: Q01DX001 (ip), vehicle: saline with Tween-80.
Where [5] appears, read: endpoint: mean survival time, dose: 400.0 mg/kg/injection, schedule: Q01DX001 (ip), vehicle: saline with Tween-80.
The mark [6] stands for this setting: endpoint: mean survival time, dose: 100.0 mg/kg/injection, schedule: Q04DX003 (ip), vehicle: saline.
[7] abbreviates: endpoint: mean survival time, dose: 200.0 mg/kg/injection, schedule: Q04DX003 (ip), vehicle: saline.
The mark [8] stands for this setting: endpoint: mean survival time, dose: 100.0 mg/kg/injection, schedule: Q01DX009 (ip), vehicle: saline with Tween-80.
[9] abbreviates: endpoint: mean survival time, dose: 200.0 mg/kg/injection, schedule: Q01DX009 (ip), vehicle: saline with Tween-80.

`CNc1ccc(CC(=O)O)cc1`: the T/C is 92 % of control (endpoint: mean survival time, dose: 100.0 mg/kg/injection, schedule: Q04DX003 (ip), vehicle: Klucel (hydroxypropylcellulose) (HPC)); 93 % of control (endpoint: mean survival time, dose: 200.0 mg/kg/injection, schedule: Q04DX003 (ip), vehicle: Klucel (hydroxypropylcellulose) (HPC)); 96 % of control (endpoint: mean survival time, dose: 400.0 mg/kg/injection, schedule: Q04DX003 (ip), vehicle: Klucel (hydroxypropylcellulose) (HPC)).

As for `Clc1ccc2c(NCc3ccncc3)ccnc2c1`, the T/C runs as follows: under setting [1], 96 % of control; under setting [2], 95 % of control; under setting [3], 96 % of control.

For the molecule `N#C/C(=C\C1CCC(Cl)C(Cl)C1)C1CCC([N+](=O)[O-])CC1` (configuration not stated), the T/C by setting is: (endpoint: mean survival time, dose: 25.0 mg/kg/injection, schedule: Q04DX002 (ip), vehicle: saline with Tween-80) 94 % of control; (endpoint: mean survival time, dose: 50.0 mg/kg/injection, schedule: Q04DX002 (ip), vehicle: saline with Tween-80) 88 % of control.

As to `Nc1nc(-c2cccc([N+](=O)[O-])c2)c(N=Nc2ccccc2Cl)s1`, the T/C was 89 % of control under setting [4] and 96 % of control under setting [5].

As to `CS(=O)(=O)OCC(O)C(O)COS(C)(=O)=O` (configuration not stated), the T/C is, setting by setting: (endpoint: mean survival time, dose: 50.0 mg/kg/injection, schedule: Q01DX007 (ip), vehicle: saline) 107 % of control; (endpoint: mean survival time, dose: 50.0 mg/kg/injection, schedule: Q01DX009 (ip), vehicle: saline) 101 % of control; (endpoint: mean survival time, dose: 50.0 mg/kg/injection, schedule: Q03DX003 (ip), vehicle: saline) 104 % of control; (endpoint: mean survival time, dose: 50.0 mg/kg/injection, schedule: Q04DX003 (ip), vehicle: saline) 103 % of control; (endpoint: mean survival time, dose: 100.0 mg/kg/injection, schedule: Q01DX007 (ip), vehicle: saline) 104 % of control; (endpoint: mean survival time, dose: 100.0 mg/kg/injection, schedule: Q01DX009 (ip), vehicle: saline sonified) 102 % of control. In addition, the T/C (endpoint: mean survival time, dose: 100.0 mg/kg/injection, schedule: Q01DX009 (ip), vehicle: saline) is 104 % of control; the T/C (endpoint: mean survival time, dose: 100.0 mg/kg/injection, schedule: Q03DX003 (ip), vehicle: saline) was 104 % of control; the T/C (endpoint: mean survival time, dose: 100.0 mg/kg/injection, schedule: Q04DX003 (ip), vehicle: saline sonified) is 100 % of control; the T/C under setting [6] is 100 % of control; the T/C (endpoint: mean survival time, dose: 200.0 mg/kg/injection, schedule: Q01DX007 (ip), vehicle: saline) was 105 % of control; the T/C (endpoint: mean survival time, dose: 200.0 mg/kg/injection, schedule: Q01DX009 (ip), vehicle: saline sonified) is 96 % of control. For the same molecule, the T/C was 106 % of control (endpoint: mean survival time, dose: 200.0 mg/kg/injection, schedule: Q01DX009 (ip), vehicle: saline); 102 % of control (endpoint: mean survival time, dose: 200.0 mg/kg/injection, schedule: Q03DX003 (ip), vehicle: saline); 108 % of control (endpoint: mean survival time, dose: 200.0 mg/kg/injection, schedule: Q04DX003 (ip), vehicle: saline sonified); 114 % of control under setting [7]; 100 % of control (endpoint: mean survival time, dose: 400.0 mg/kg/injection, schedule: Q01DX009 (ip), vehicle: saline sonified); 102 % of control (endpoint: mean survival time, dose: 400.0 mg/kg/injection, schedule: Q04DX003 (ip), vehicle: saline sonified).

As for `OCP(CO)CO.[Cl][Hg][Cl]`, the T/C is, setting by setting: (endpoint: mean survival time, dose: 12.5 mg/kg/injection, schedule: Q04DX003 (ip), vehicle: saline) 119 % of control; (endpoint: mean survival time, dose: 25.0 mg/kg/injection, schedule: Q04DX003 (ip), vehicle: saline) 116 % of control.

Regarding `OC1C2CCN(CC2)C1CN1CC=C(c2ccccc2)CC1` (configuration not stated), the T/C under setting [6] is 100 % of control.

Take `C[N+]1(C)N=C([O-])N(c2cccc3ccccc23)C1=O`: the T/C is, setting by setting: under setting [4], 98 % of control; under setting [8], 103 % of control; (endpoint: mean survival time, dose: 200.0 mg/kg/injection, schedule: Q01DX001 (ip), vehicle: saline with Tween-80) 101 % of control; under setting [9], 108 % of control; under setting [5], 98 % of control.

With `CCNc1nc(NC(C)C)nc(SC)n1`, the T/C by setting is: (endpoint: mean survival time, dose: 50.0 mg/kg/injection, schedule: Q01DX009 (ip), vehicle: saline with Tween-80) 104 % of control; under setting [8], 101 % of control; under setting [6], 97 % of control; under setting [9], 117 % of control; under setting [7], 101 % of control.

`CCCCN(CCCC)CC(O)c1cc(-c2c(Cl)cccc2Cl)nc2c(Cl)cc(Cl)cc12` (configuration not stated): the T/C reads like this: under setting [1], 86 % of control; under setting [2], 93 % of control; under setting [3], 96 % of control.

On to `NCC1OC(OC2C(N)CC(N)C(O)C2OC2OC(CO)C(O)C2O)C(N)C(O)C1O` (configuration not stated), for which the T/C is 96 % of control (endpoint: mean survival time, dose: 75.0 mg/kg/injection, schedule: Q04DX003 (ip), vehicle: saline); 102 % of control (endpoint: mean survival time, dose: 150.0 mg/kg/injection, schedule: Q04DX003 (ip), vehicle: saline); 100 % of control (endpoint: mean survival time, dose: 300.0 mg/kg/injection, schedule: Q04DX003 (ip), vehicle: saline).

In the case of `O=C(NNc1ccccc1OCc1ccccc1)C(F)(F)F`, the T/C is 102 % of control under setting [1], 103 % of control under setting [2] and 103 % of control under setting [3].

As to `CCCCCCOc1ccc(C=Nc2ccc(CC)cc2)cc1`, the T/C runs as follows: under setting [1], 88 % of control; under setting [2], 91 % of control; under setting [3], 88 % of control.

Consider `N[C@H](C(=O)O)[C@@H]1CC(Cl)=NO1`, for which the T/C was 113 % of control (endpoint: mean survival time, dose: 0.5 mg/kg/injection, schedule: Q01DX009 (ip), vehicle: saline); 115 % of control (endpoint: mean survival time, dose: 0.78 mg/kg/injection, schedule: Q01DX009 (ip), vehicle: saline); 122 % of control (endpoint: mean survival time, dose: 1.0 mg/kg/injection, schedule: Q01DX009 (ip), vehicle: saline); 124 % of control (endpoint: mean survival time, dose: 2.0 mg/kg/injection, schedule: Q01DX009 (ip), vehicle: saline); 167 % of control (endpoint: mean survival time, dose: 3.0 mg/kg/injection, schedule: Q01DX009 (ip), vehicle: saline); 153 % of control (endpoint: mean survival time, dose: 3.12 mg/kg/injection, schedule: Q01DX009 (ip), vehicle: saline). In addition, the T/C is, setting by setting: (endpoint: mean survival time, dose: 6.0 mg/kg/injection, schedule: Q01DX009 (ip), vehicle: saline) 165 % of control; (endpoint: mean survival time, dose: 6.25 mg/kg/injection, schedule: Q01DX009 (ip), vehicle: saline) 151 % of control and 156 % of control; (endpoint: mean survival time, dose: 8.0 mg/kg/injection, schedule: Q01DX009 (ip), vehicle: saline) 157 % of control; (endpoint: mean survival time, dose: 12.0 mg/kg/injection, schedule: Q01DX009 (ip), vehicle: saline) 104 % of control; (endpoint: mean survival time, dose: 12.5 mg/kg/injection, schedule: Q01DX009 (ip), vehicle: saline) 118 % of control and 122 % of control; (endpoint: mean survival time, dose: 16.0 mg/kg/injection, schedule: Q01DX009 (ip), vehicle: saline) 155 % of control. In addition, the T/C was 92 % of control (endpoint: mean survival time, dose: 25.0 mg/kg/injection, schedule: Q01DX009 (ip), vehicle: saline); 153 % of control (endpoint: mean survival time, dose: 100.0 mg/kg/injection, schedule: Q04DX003 (ip), vehicle: water); 122 % of control (endpoint: median survival time, dose: 0.5 mg/kg/injection, schedule: Q01DX009 (ip), vehicle: saline); 163 % of control (endpoint: median survival time, dose: 1.0 mg/kg/injection, schedule: Q01DX009 (ip), vehicle: saline); 180 % of control (endpoint: median survival time, dose: 2.0 mg/kg/injection, schedule: Q01DX009 (ip), vehicle: saline); 152 % of control (endpoint: median survival time, dose: 3.0 mg/kg/injection, schedule: Q01DX009 (ip), vehicle: saline). Besides, the T/C was 150 % of control (endpoint: median survival time, dose: 4.0 mg/kg/injection, schedule: Q01DX009 (ip), vehicle: saline); 114 % of control and 109 % of control (endpoint: median survival time, dose: 6.0 mg/kg/injection, schedule: Q01DX009 (ip), vehicle: saline); 123 % of control (endpoint: median survival time, dose: 16.0 mg/kg/injection, schedule: Q01DX009 (ip), vehicle: saline); 72 % of control (endpoint: median survival time, dose: 24.0 mg/kg/injection, schedule: Q01DX009 (ip), vehicle: saline).

Consider `Cc1ccc2c(ccc3nc(N)nc(N)c32)c1`, for which the T/C (endpoint: mean survival time, dose: 5.0 mg/kg/injection, schedule: Q01DX001 (ip), vehicle: saline) is 100 % of control; the T/C (endpoint: mean survival time, dose: 10.0 mg/kg/injection, schedule: Q01DX001 (ip), vehicle: saline) was 89 % of control; the T/C (endpoint: mean survival time, dose: 20.0 mg/kg/injection, schedule: Q01DX001 (ip), vehicle: saline) was 95 % of control; the T/C (endpoint: mean survival time, dose: 40.0 mg/kg/injection, schedule: Q01DX001 (ip), vehicle: saline) is 95 % of control.

In the case of `c1ccc(Cn2cccc2N=Nc2ccccc2)cc1`, the T/C was 98 % of control (endpoint: mean survival time, dose: 100.0 mg/kg/injection, schedule: Q01DX001 (ip), vehicle: other); 101 % of control (endpoint: mean survival time, dose: 200.0 mg/kg/injection, schedule: Q01DX001 (ip), vehicle: other); 98 % of control (endpoint: mean survival time, dose: 400.0 mg/kg/injection, schedule: Q01DX001 (ip), vehicle: other).
